Experimental data as given in patent US11951100B2, “Formulations of RBP4 inhibitors and methods of use” (Belite Bio, LLC, priority 2019, dated 2024).
In brackets after ≈: the same amount, converted by molar mass. Several values for one entry are separate records, joined by “and”; a condition that tells them apart may be missing. Equal values may be shown once.

Experiments:
Assay type in all cases: physicochemical
[1] = Non-sink dissolution of unmicronized and micronized Form C in SLS in water; conditions: aqueous with cosolvent or surfactant or cyclodextrin
Excerpt: The enhancement in dissolution rate from micronized samples was likely due to the increase in surface area after micronization supported by microscopic images and particle sizing.

[2] = Non-sink dissolution, 0.1N HCl then FaSSIF
Description: Sample of solid dispersions containing Compound 1 were analyzed in a non-sink dissolution experiment. Dispersion samples and neat Compound 1 were suspended in 0.1N HCl media at a concentration of 1000 ug/mL Compound 1. Concentration of each sample was then measured by centrifugation to pellet undissolved material, and an aliquot of the supernatant was assessed by HPLC for concentration. Material was then agitated in a Distek 2100 C Dissolution apparatus, USP Type II. Instrument was operated according to standard instrument procedures provided by manufacturer. Parameters used for the experiment are shown below in Table 11. After 30 minutes, the media was modulated to FaSSIF by adding equivalent volume of FaSSIF buffer with bile salts, bringing the theoretical concentration of compound 1 to 500 μg/mL. Dissolved concentration of Compound 1 in each sample was then assessed periodically by HPLC. […] These resulting values can be seen in Table 12 below.

[3] = MDSC of spray dried solid dispersions; conditions: n = 3
Description: Samples of the solid dispersions containing Compound 1 were analyzed by Differential Scanning Calorimetry using a TA Discovery DSC2500 with RCS90 chiller according to standard instrument procedures provided by manufacturer. Parameters used for the analysis are shown below in Table 9. Three replicates of the experiment were run for each dispersion.

[4] = Melt-quench modulated DSC of Compound 1
Description: A sample of Compound 1 was analyzed by Modulated Differential Scanning Calorimetry using a TA Discovery DSC2500 with RCS90 chiller according to standard instrument procedures provided by manufacturer. Parameters used for the analysis are shown below in Table 4. Two replicates of the experiment were run with reproducible results. The resulting thermogram, shown in FIG. 10C, indicates a glass transition temperature (Tg) of about 93° C., a crystallization temperature (Tc) of about 136° C., and a Tm/Tg ratio of 1.37. The Tm/Tg ratio of 1.37 is indicative of moderate physical stability. Without being bound by theory, the Te observed quickly after Compound 1 entering a rubbery state was indicative of a propensity to crystallize. [table]

[5] = Chemical stability at elevated temperatures (DSC heating, HPLC); conditions: Form C batch heated in DSC to a variety of temperatures and holding times
Description: The API was heated to a variety of temperatures with several holding time periods in DSC. The resulted solids in DSC pan were extracted with DMSO. The solutions of API were prepared and injected into HPLC for determination of assay and related substances. […] One of possible solution to the API degradation in hot-melt extrusion might be the addition of a plasticizer which may lower the process temperature for maintaining chemical integrity of the API.

[6] = Estimated solubility by solvent aliquot addition, visual inspection; conditions: thermodynamic from solid
Description: Solubilities of Compound 1 in a few solvents were estimated. The experiments were carried out by adding the test solvent in aliquots to weighed portions of solid. Whether dissolution had occurred was judged by visual inspection after addition of each solvent aliquot. Solubility numbers were calculated by dividing the total amount of solvent used to dissolve the sample by the weight of the sample. The actual solubilities may be greater than the numbers calculated because of the use of solvent aliquots that were too large or because of slow dissolution rates. […] The solubility number is expressed as “greater than or equal to” if dissolution occurred on addition of the first solvent aliquot.

[7] = Log D7.4, shake-flask partitioning; conditions: pH 7.4, shake-flask (Pion, Inc.)
Description: Several biopharmaceutically relevant parameters of the API (Compound 1) were obtained for the API. […] Based on these two biopharmaceutical parameters, this compound is possibly a BCS Class II. Solubility enhancement is critical for bioavailability of the API for dosing. Therefore, to overcome the limitation from solubility, several experiments were conducted to assess various solubility enhancement approaches utilized in formulation development

[8] = Saturated solubility at 80° C., visually estimated; conditions: Capmul MCM
[9] = Equilibrium solubility by HPLC, Form C, ambient temperature; conditions: for solubility: thermodynamic from solid
Description: […] (as a part of feasibility assessment of liquid dosage form in formulation development and dissolution method development), a number of […] […] The equilibrated suspensions were isolated by centrifuge and the filtrates were injected into HPLC to determine equilibrium solubility of the API in each solvent system.

## CC(=O)N1CCc2c(C(=O)N3CCC(c4ccc(F)c(F)c4C(F)(F)F)CC3)n[nH]c2C1 [Compound 1, 1-(3-(4-(3,4-difluoro-2-(trifluoromethyl)phenyl)piperidine-1-carbonyl)-1,4,5,7-tetrahydro-6H-pyrazolo[3,4-c]pyridin-6-yl)ethan-1-one]
[1]; 0.366% SLS in water, read-out: nominal solubility of the API
  solubility: ~460 µg/mL (≈ 1010 µM)
[1]; 0.36% SLS in water, calculated from SLS concentration vs solubility profile, read-out: solubility of the API
  solubility: 445 µg/mL (≈ 974 µM)
[2]; FaSSIF
  AUC 5-180 IB: 1300 min*μgA/mL
[2]; final concentration
  C210: 7.1 μgA/mL
[3]
  Tg: 93.4 °C
  Tg Onset: 89.4 °C
[4]; indicative of moderate physical stability
  Tm/Tg ratio: 1.37
[4]; melt-quenched Compound 1
  crystallization temperature (Tc): about 136 °C
  glass transition temperature (Tg): about 93 °C
[5]
  chemical stability at elevated temperatures, HPLC related substances: impurity (with RRT=0.8 in HPLC) were present in all prepared samples except the control sample
[6]; 2-propanol, organic solvent or mixture
  solubility: 4000 µg/mL (≈ 8760 µM)
[6]; acetone, organic solvent or mixture
  solubility: 2000 µg/mL (≈ 4380 µM)
[6]; acetonitrile, organic solvent or mixture
  solubility: < 1000 µg/mL
[6]; dichloromethane, organic solvent or mixture
  solubility: 2000 µg/mL (≈ 4380 µM)
[6]; dimethylformamide, organic solvent or mixture
  solubility: 15000 µg/mL (≈ 32900 µM)
[6]; ethanol (absolute), organic solvent or mixture
  solubility: 6000 µg/mL (≈ 13100 µM)
[6]; ethyl acetate, organic solvent or mixture
  solubility: 1000 µg/mL (≈ 2190 µM)
[6]; ethyl ether, organic solvent or mixture
  solubility: < 1000 µg/mL
[6]; methanol, organic solvent or mixture
  solubility: 6000 µg/mL (≈ 13100 µM)
[6]; tetrahydrofuran, organic solvent or mixture
  solubility: 6000 µg/mL (≈ 13100 µM)
[6]; water
  solubility: < 1000 µg/mL
[7]
  logD: 3.23
[8]; 80 °C, oil or lipid, thermodynamic from solid
  solubility: 16000 µg/mL (≈ 35100 µM)
[8]; listed as API
  saturated solubility: 20000 µg/mL
[9]; Canola Oil, oil or lipid, Canola Oil, read-out: Solubility by HPLC
  solubility: 31 µg/mL (≈ 67.9 µM)
[9]; Capmul MCM, EP, oil or lipid, Capmul MCM, EP, read-out: Solubility by HPLC
  solubility: 3900 µg/mL (≈ 8540 µM)
[9]; Capmul MCM, NF, oil or lipid, Capmul MCM, NF, read-out: Solubility by HPLC
  solubility: 4400 µg/mL (≈ 9640 µM)
[9]; Captex 300, EP/NF, oil or lipid, Captex 300, EP/NF, read-out: Solubility by HPLC
  solubility: 64 µg/mL (≈ 140 µM)
[9]; Captex 355, EP/NF, oil or lipid, Captex 355, EP/NF, read-out: Solubility by HPLC
  solubility: 49 µg/mL (≈ 107 µM)
[9]; Castor Oil, oil or lipid, Castor Oil, read-out: Solubility by HPLC
  solubility: 990 µg/mL (≈ 2170 µM)
[9]; Corn Oil, oil or lipid, Corn Oil, read-out: Solubility by HPLC
  solubility: 31 µg/mL (≈ 67.9 µM)
[9]; FaSSIF, pH 4.96, fassif, FaSSIF, Final pH: 4.96, read-out: Solubility by HPLC
  solubility: 39 µg/mL (≈ 85.4 µM)
[9]; FaSSIF, pH 4.99, fassif, FaSSIF, Final pH: 4.99, read-out: Solubility by HPLC
  solubility: 47 µg/mL (≈ 103 µM)
[9]; FaSSIF, pH 6.77, fassif, FaSSIF, Final pH: 6.77, read-out: Solubility by HPLC
  solubility: 5.1 µg/mL (≈ 11.2 µM)
[9]; FaSSIF, pH 6.78, fassif, FaSSIF, Final pH: 6.78, read-out: Solubility by HPLC
  solubility: 3.2 µg/mL (≈ 7.01 µM)
[9]; Gelucire 44/14 1 mg/mL (500× cmc), aqueous with cosolvent or surfactant or cyclodextrin, Gelucire 44/14, 1 mg/mL (500× cmc), read-out: Solubility by HPLC
  solubility: 0.8 µg/mL (≈ 1.75 µM)
[9]; Kolliphor HS-15, 35 °C, organic solvent or mixture, Kolliphor HS-15, Stirred at 35° C., read-out: Solubility by HPLC
  solubility: 2800 µg/mL (≈ 6130 µM)
[9]; Kolliphor P188 0.4 mM (3.2× cmc), aqueous with cosolvent or surfactant or cyclodextrin, Kolliphor P188, 0.4 mM (3.2× cmc), read-out: Solubility by HPLC
  solubility: 1.6 µg/mL (≈ 3.51 µM)
[9]; Kolliphor P188 4 mM (32× cmc), aqueous with cosolvent or surfactant or cyclodextrin, Kolliphor P188, 4 mM (32× cmc), read-out: Solubility by HPLC
  solubility: 3.1 µg/mL (≈ 6.79 µM)
[9]; Labrafil M1944CS, oil or lipid, Labrafil M1944CS, read-out: Solubility by HPLC
  solubility: 280 µg/mL (≈ 613 µM)
[9]; Labrasol, oil or lipid, Labrasol, read-out: Solubility by HPLC
  solubility: 1700 µg/mL (≈ 3720 µM)
[9]; Lecithin 61 mg/mL (100× cmc), aqueous with cosolvent or surfactant or cyclodextrin, Lecithin, 61 mg/mL (100× cmc), read-out: Solubility by HPLC
  solubility: 53 µg/mL (≈ 116 µM)
[9]; Miglyol 810, oil or lipid, Miglyol 810, read-out: Solubility by HPLC
  solubility: 53 µg/mL (≈ 116 µM)
[9]; Miglyol 812, oil or lipid, Miglyol 812, read-out: Solubility by HPLC
  solubility: 52 µg/mL (≈ 114 µM)
[9]; Oleic Acid, oil or lipid, Oleic Acid, read-out: Solubility by HPLC
  solubility: 390 µg/mL (≈ 854 µM)
[9]; PEG 400, organic solvent or mixture, PEG 400, read-out: Solubility by HPLC
  solubility: 2000 µg/mL (≈ 4380 µM)
[9]; Peceol, oil or lipid, Peceol, read-out: Solubility by HPLC
  solubility: 1300 µg/mL (≈ 2850 µM)
[9]; Plurol Oleique CC 497, oil or lipid, Plurol Oleique CC 497, read-out: Solubility by HPLC
  solubility: 1200 µg/mL (≈ 2630 µM)
[9]; Sodium Lauryl Sulfate 8.2 mM (cmc), aqueous with cosolvent or surfactant or cyclodextrin, Sodium Lauryl Sulfate, 8.2 mM (cmc), read-out: Solubility by HPLC
  solubility: 150 µg/mL (≈ 329 µM)
[9]; Sodium Lauryl Sulfate 41 mM (5× cmc), aqueous with cosolvent or surfactant or cyclodextrin, Sodium Lauryl Sulfate, 41 mM (5× cmc), read-out: Solubility by HPLC
  solubility: 1600 µg/mL (≈ 3510 µM)
[9]; Sodium Lauryl Sulfate 82 mM (10× cmc), aqueous with cosolvent or surfactant or cyclodextrin, Sodium Lauryl Sulfate, 82 mM (10× cmc), read-out: Solubility by HPLC
  solubility: 2400 µg/mL (≈ 5260 µM)
[9]; Sodium Lauryl Sulfate, 0.82M (100× cmc)
  Solubility by HPLC: 17000 µg/mL and 19000 µg/mL
[9]; Soybean Oil, oil or lipid, Soybean Oil, read-out: Solubility by HPLC
  solubility: 30 µg/mL (≈ 65.7 µM)
[9]; Transcutol HP, organic solvent or mixture, Transcutol HP, read-out: Solubility by HPLC
  solubility: 4700 µg/mL (≈ 10300 µM)
[9]; Triacetic, organic solvent or mixture, Triacetic, read-out: Solubility by HPLC
  solubility: 430 µg/mL (≈ 942 µM)
[9]; Tween 80, 1.2 mM (100× CMC), aqueous with cosolvent or surfactant or cyclodextrin, Tween 80, 1.2 mM (100× cmc), read-out: Solubility by HPLC
  solubility: 560 µg/mL (≈ 1230 µM)
[9]; Vitamin E TPGS 0.2 wt % (10× cmc), aqueous with cosolvent or surfactant or cyclodextrin, Vitamin E TPGS, 0.2 wt % (10× cmc), read-out: Solubility by HPLC
  solubility: 20 µg/mL (≈ 43.8 µM)
[9]; Vitamin E TPGS 2 wt % (100× cmc), aqueous with cosolvent or surfactant or cyclodextrin, Vitamin E TPGS, 2 wt % (100× cmc), read-out: Solubility by HPLC
  solubility: 40 µg/mL (≈ 87.6 µM)
[9]; Water, pH 8.99, water, Water, Final pH: 8.99, read-out: Solubility by HPLC
  solubility: 1 µg/mL (≈ 2.19 µM)
[9]; ethanol, organic solvent or mixture, Ethanol, read-out: Solubility by HPLC
  solubility: 3100 µg/mL (≈ 6790 µM)
[9]; organic solvent or mixture, EtOH, PEG 400, Propylene glycol, Capmul MCM NF, Kolliphor EL, Capmul MCM EP, Plurol Oleique CC 497, Peceol, Labrasol, SLS at 5× and 10×CMC, Transcutol HP, read-out: solubility of the API
  solubility: 1000 to 5000 µg/mL (≈ 2190 to 11000 µM)
[9]; pH 1.0 buffer, pH 1, simulated gastric fluid, pH 1.0 buffer, Final pH: 0.89, read-out: Solubility by HPLC
  solubility: 1.2 µg/mL (≈ 2.63 µM)
[9]; pH 4.5 buffer, pH 4.5, aqueous buffer, pH 4.5 buffer, Final pH: 4.80, read-out: Solubility by HPLC
  solubility: 1.1 µg/mL (≈ 2.41 µM)
[9]; pH 6.8 buffer, pH 6.8, aqueous buffer, pH 6.8 buffer, Final pH: 6.50, read-out: Solubility by HPLC
  solubility: 0.8 µg/mL (≈ 1.75 µM)
[9]; propylene glycol, organic solvent or mixture, Propylene Glycol, read-out: Solubility by HPLC
  solubility: 2600 µg/mL (≈ 5700 µM)
[9]; sodium lauryl sulfate solution, 0.82 M (100× CMC), aqueous with cosolvent or surfactant or cyclodextrin, Sodium Lauryl Sulfate, 0.82M (100× cmc), read-out: Solubility by HPLC
  solubility: > 10000 µg/mL
[9]; sulfobutylether β-cyclodextrin, 40 wt %, aqueous with cosolvent or surfactant or cyclodextrin, Sulfobutylether β-CD, 40 wt %, read-out: Solubility by HPLC
  solubility: 750 µg/mL (≈ 1640 µM)
